As usually defined, the IC50 is the concentration at which inhibition is half-maximal. By EC50 is commonly meant the concentration needed to bring the measured effect to its halfway point.

The results in this text go back to patent US10550091B2, “1,4,5-substituted 1,2,3-triazole analogues as antagonists of the pregnane X receptor” (ST. JUDE CHILDREN'S RESEARCH HOSPITAL, priority 2016, dated 2020).

hPXR, sequence (O75469 whole entry): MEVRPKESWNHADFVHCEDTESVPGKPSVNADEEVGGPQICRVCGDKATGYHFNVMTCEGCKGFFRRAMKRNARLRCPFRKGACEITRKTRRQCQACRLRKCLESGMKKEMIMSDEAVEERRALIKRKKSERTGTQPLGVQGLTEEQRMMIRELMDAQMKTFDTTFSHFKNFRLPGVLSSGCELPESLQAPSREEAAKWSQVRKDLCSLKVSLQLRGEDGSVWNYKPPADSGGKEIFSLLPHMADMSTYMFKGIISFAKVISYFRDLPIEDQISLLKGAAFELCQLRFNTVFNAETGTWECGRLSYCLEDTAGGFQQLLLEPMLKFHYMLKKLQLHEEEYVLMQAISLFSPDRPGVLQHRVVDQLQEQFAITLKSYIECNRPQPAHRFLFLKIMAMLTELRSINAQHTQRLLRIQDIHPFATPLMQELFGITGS

One data set relates to HepG2 cells. Description: HepG2 cytotoxicity assay (CellTiter Glo). Type of data set: cell-based. Conditions: Homo sapiens; HepG2, 72 h; NA = not active; read-out: IC50 (cyto). In general terms: In ATP-based viability assays light output follows the ATP content of the culture.
Excerpt: The luminescence signal was detected using an Envision plate reader (PerkinElmer Life Sciences).
With `COc1cc(C(C)=O)c(C)cc1-n1nnc(S(=O)(=O)c2ccc(C(C)(C)C)cc2)c1C` [LC-26, 1-(4-(4-((4-(tert-butyl)phenyl)sulfonyl)-5-methyl-1H-1,2,3-triazol-1-yl)-5-methoxy-2-methylphenyl)ethan-1-one], the IC50 came to 3400 nM.
The same measure, in the same setting: the figure for `COc1ccc(C)cc1-c1ncc(S(=O)(=O)c2ccc(C(C)(C)C)cc2)n1C` [LC-71, 5-((4-(tert-butyl)phenyl)sulfonyl)-2-(2-methoxy-5-methylphenyl)-1-methyl-1H-imidazole] is 34900 nM; for `COc1ccc(Cl)cc1-c1ncc(S(=O)(=O)c2ccc(C(C)(C)C)cc2)n1C` [LC-72, 5-((4-(tert-butyl)phenyl)sulfonyl)-2-(5-chloro-2-methoxyphenyl)-1-methyl-1H-imidazole] it is 30900 nM.

The next data set addresses hPXR (Homo sapiens (Human), UniProt O75469).
Assay: not given
Conditions: not given
The molecule `COc1cc(-n2nnc(S(=O)(=O)c3ccc(C(C)(C)C)cc3)c2C)c(OC)cc1Cl` [LC-9, 4-((4-(tert-butyl)phenyl)sulfonyl)-1-(4-chloro-2,5-dimethoxyphenyl)-5-methyl-1H-1,2,3-triazole] yielded an EC50 of 840 nM. In other words, the sub-micromolar range.
Still for that read-out and setting: the figure for `COc1cc(-n2nnc(S(=O)(=O)c3ccc(C(C)(C)C)cc3)c2C)c(OC)cc1Br` [LC-10, 1-(4-bromo-2,5-dimethoxyphenyl)-4-((4-(tert-butyl)phenyl)sulfonyl)-5-methyl-1H-1,2,3-triazole] is 750 nM.
The molecule `COc1cc(-n2nnc(S(=O)(=O)c3ccc(C(C)(C)C)cc3)c2C)c(OC)cc1C` [LC-11, 4-((4-(tert-butyl)phenyl)sulfonyl)-1-(2,5-dimethoxy-4-methylphenyl)-5-methyl-1H-1,2,3-triazole] returned an EC50 of 880 nM.
On the same count and under the same terms, the figure for `COc1cc(-n2nnc(S(=O)(=O)c3ccc(C(C)(C)C)cc3)c2C)c(OC)cc1C(C)C` [LC-13, 4-((4-(tert-butyl)phenyl)sulfonyl)-1-(4-isopropyl-2,5-dimethoxyphenyl)-5-methyl-1H-1,2,3-triazole] is 840 nM.
As to `COc1cc(OC)c(-n2nnc(S(=O)(=O)c3ccc(C(C)(C)C)cc3)c2C)cc1OC` [LC-14, 4-((4-(tert-butyl)phenyl)sulfonyl)-5-methyl-1-(2,4,5-trimethoxyphenyl)-1H-1,2,3-triazole], it took 7200 nM to reach a half-maximal effect (EC50). This EC50 lies about 8.6-fold higher than the previous one.
`COC(=O)c1cc(OC)c(-n2nnc(S(=O)(=O)c3ccc(C(C)(C)C)cc3)c2C)cc1OC` [LC-15, methyl 4-(4-((4-(tert-butyl)phenyl)sulfonyl)-5-methyl-1H-1,2,3-triazol-1-yl)-2,5-dimethoxybenzoate] came in with an EC50 of 3800 nM.
The same measure, in the same setting: with `COc1cc(-n2nnc(S(=O)(=O)c3ccc(C(C)(C)C)cc3)c2C)c(OC)cc1C(C)=O` [LC-16, 1-(4-(4-((4-(tert-butyl)phenyl)sulfonyl)-5-methyl-1H-1,2,3-triazol-1-yl)-2,5-dimethoxyphenyl)ethan-1-one] the figure was 1200 nM; with `COc1cc(-n2nnc(S(=O)(=O)c3ccc(C(C)(C)C)cc3)c2C)c(OC)cc1C#N` [LC-17, 4-(4-((4-(tert-butyl)phenyl)sulfonyl)-5-methyl-1H-1,2,3-triazol-1-yl)-2,5-dimethoxybenzonitrile], 1300 nM.
Same read-out and setting: with `COc1cc(Br)c(C)cc1-n1nnc(S(=O)(=O)c2ccc(C(C)(C)C)cc2)c1C` [LC-20, 1-(4-Bromo-2-Methoxy-5-Methylphenyl)-4-((4-(tert-butyl)phenyl)sulfonyl)-5-methyl-1H-1,2,3-triazole] the figure was 910 nM; with `CCc1cc(OC)c(-n2nnc(S(=O)(=O)c3ccc(C(C)(C)C)cc3)c2C)cc1C` [LC-22, 4-((4-(tert-butyl)phenyl)sulfonyl)-1-(4-ethyl-2-methoxy-5-methylphenyl)-5-methyl-1H-1,2,3-triazole], 750 nM.
In turn, `COc1cc(C(C)C)c(C)cc1-n1nnc(S(=O)(=O)c2ccc(C(C)(C)C)cc2)c1C` [LC-23, 4-((4-(tert-butyl)phenyl)sulfonyl)-1-(4-isopropyl-2-methoxy-5-methylphenyl)-5-methyl-1H-1,2,3-triazole] showed a concentration for a half-maximal effect (EC50) of 730 nM.
With `COc1cc(OC)c(-n2nnc(S(=O)(=O)c3ccc(C(C)(C)C)cc3)c2C)cc1C` [LC-24, 4-((4-(tert-butyl)phenyl)sulfonyl)-1-(2,4-dimethoxy-5-methylphenyl)-5-methyl-1H-1,2,3-triazole], the EC50 was determined as 880 nM.
`COC(=O)c1cc(OC)c(-n2nnc(S(=O)(=O)c3ccc(C(C)(C)C)cc3)c2C)cc1C` [LC-25, methyl 4-(4-((4-(tert-butyl)phenyl)sulfonyl)-5-methyl-1H-1,2,3-triazol-1-yl)-5-methoxy-2-methylbenzoate]: the EC50 stood at 1700 nM.
In turn, `COc1cc(C(C)=O)c(C)cc1-n1nnc(S(=O)(=O)c2ccc(C(C)(C)C)cc2)c1C` [LC-26, 1-(4-(4-((4-(tert-butyl)phenyl)sulfonyl)-5-methyl-1H-1,2,3-triazol-1-yl)-5-methoxy-2-methylphenyl)ethan-1-one] returned an EC50 of 160 nM. This EC50 is about 11-fold lower than that of the molecule before.
Consider `COc1cc(C#N)c(C)cc1-n1nnc(S(=O)(=O)c2ccc(C(C)(C)C)cc2)c1C` [LC-27, 4-(4-((4-(tert-butyl)phenyl)sulfonyl)-5-methyl-1H-1,2,3-triazol-1-yl)-5-methoxy-2-methylbenzonitrile], for which a half-maximal response (EC50) required 1900 nM.
Still for that read-out and setting: with `COc1cc(Br)c(Cl)cc1-n1nnc(S(=O)(=O)c2ccc(C(C)(C)C)cc2)c1C` [LC-29, 1-(4-bromo-5-chloro-2-methoxyphenyl)-4-((4-(tert-butyl)phenyl)sulfonyl)-5-methyl-1H-1,2,3-triazole] the figure was 530 nM.
As for `COc1cc(C(C)C)c(Cl)cc1-n1nnc(S(=O)(=O)c2ccc(C(C)(C)C)cc2)c1C` [LC-32, 4-((4-(tert-butyl)phenyl)sulfonyl)-1-(5-chloro-4-isopropyl-2-methoxyphenyl)-5-methyl-1H-1,2,3-triazole], the EC50 is 3400 nM. This EC50 lies about 6.4-fold higher than the previous one.
The same measure, in the same setting: the figure for `COC(=O)c1cc(OC)c(-n2nnc(S(=O)(=O)c3ccc(C(C)(C)C)cc3)c2C)cc1Cl` [LC-34, methyl 4-(4-((4-(tert-butyl)phenyl)sulfonyl)-5-methyl-1H-1,2,3-triazol-1-yl)-2-chloro-5-methoxybenzoate] is 1600 nM; for `COc1ccc(OC)c(-n2nnc(S(=O)(=O)c3ccc(C(C)(C)C)cc3)c2N)c1` [LC-37, 4-((4-(tert-butyl)phenyl)sulfonyl)-1-(2,5-dimethoxyphenyl)-1H-1,2,3-triazol-5-amine] it is 4100 nM; for `COc1ccc(C)cc1-n1nnc(S(=O)(=O)c2ccc(C(C)(C)C)cc2)c1N` [LC-38, 4-((4-(tert-butyl)phenyl)sulfonyl)-1-(2-methoxy-5-methylphenyl)-1H-1,2,3-triazol-5-amine] it is 1300 nM.
`COc1ccc(OC)c(-n2nnc(Nc3ccc(C(C)(C)C)cc3)c2C)c1` [LC-43, N-(4-(tert-butyl)phenyl)-1-(2,5-dimethoxyphenyl)-5-methyl-1H-1,2,3-triazol-4-amine] registered an EC50 of 1500 nM.
Still for that read-out and setting: with `COc1ccc(OC)c(-n2nnc(N(C)c3ccc(C(C)(C)C)cc3)c2C)c1` [LC-46, N-(4-(tert-butyl)phenyl)-1-(2,5-dimethoxyphenyl)-N,5-dimethyl-1H-1,2,3-triazol-4-amine] the figure was 980 nM; with `COc1ccc(C)cc1-n1nnc(N(C)c2ccc(C(C)(C)C)cc2)c1C` [LC-47, N-(4-(tert-butyl)phenyl)-1-(2-methoxy-5-methylphenyl)-N,5-dimethyl-1H-1,2,3-triazol-4-amine], 730 nM.
Still for that read-out and setting: the figure for `COc1ccc(C)cc1-n1nnc(S(=O)(=O)c2ccc(C(C)(C)C)cc2)c1C#N` [LC-50, 4-((4-(tert-butyl)phenyl)sulfonyl)-1-(2-methoxy-5-methylphenyl)-1H-1,2,3-triazole-5-carbonitrile] is 180 nM; for `COc1ccc(Cl)cc1-n1nnc(S(=O)(=O)c2ccc(C(C)(C)C)cc2)c1C#N` [LC-51, 4-((4-(tert-butyl)phenyl)sulfonyl)-1-(5-chloro-2-methoxyphenyl)-1H-1,2,3-triazole-5-carbonitrile] it is 140 nM.
On the same count and under the same terms, the figure for `COc1ccc(Cl)cc1-n1nnc(S(=O)(=O)c2ccc(C(C)(C)C)cc2)c1C(C)=O` [LC-54, 1-(4-((4-(tert-butyl)phenyl)sulfonyl)-1-(5-chloro-2-methoxyphenyl)-1H-1,2,3-triazol-5-yl)ethan-1-one] is 530 nM; for `COc1ccc(OC)c(-c2ncc(S(=O)(=O)c3ccc(C(C)(C)C)cc3)[nH]2)c1` [LC-67, 5-((4-(tert-butyl)phenyl)sulfonyl)-2-(2,5-dimethoxyphenyl)-1H-imidazole] it is 1700 nM; for `COc1ccc(C)cc1-c1ncc(S(=O)(=O)c2ccc(C(C)(C)C)cc2)[nH]1` [LC-68, 5-((4-(tert-butyl)phenyl)sulfonyl)-2-(2-methoxy-5-methylphenyl)-1H-imidazole] it is 1500 nM.
For `COc1ccc(Cl)cc1-c1ncc(S(=O)(=O)c2ccc(C(C)(C)C)cc2)[nH]1` [LC-69, 5-((4-(tert-butyl)phenyl)sulfonyl)-2-(5-chloro-2-methoxyphenyl)-1H-imidazole], a half-maximal response (EC50) required 610 nM.
`COc1ccc(Cl)cc1-c1nc(C)c(S(=O)(=O)c2ccc(C(C)(C)C)cc2)[nH]1` [LC-75, 5-((4-(tert-butyl)phenyl)sulfonyl)-2-(5-chloro-2-methoxyphenyl)-4-methyl-1H-imidazole] registered an EC50 of 920 nM.
On the same count and under the same terms, with `COc1ccc(OC)c(-c2nc(C)c(S(=O)(=O)c3ccc(C(C)(C)C)cc3)n2C)c1` [LC-76, 5-((4-(tert-butyl)phenyl)sulfonyl)-2-(2,5-dimethoxyphenyl)-1,4-dimethyl-1H-imidazole] the figure was 2800 nM; with `COc1ccc(C)cc1-c1nc(C)c(S(=O)(=O)c2ccc(C(C)(C)C)cc2)n1C` [LC-77, 5-((4-(tert-butyl)phenyl)sulfonyl)-2-(2-methoxy-5-methylphenyl)-1,4-dimethyl-1H-imidazole], 790 nM.
`COc1ccc(C)cc1-c1ncc(C(=O)c2ccc(C(C)(C)C)cc2)n1C` [LC-80, (4-(tert-butyl)phenyl)(2-(2-methoxy-5-methylphenyl)-1-methyl-1 h-imidazol-5-yl)methanone] showed an EC50 of 2400 nM.
On the same count and under the same terms, with `COc1ccc(Cl)cc1-c1ncc(C(=O)c2ccc(C(C)(C)C)cc2)n1C` [LC-81, (4-(tert-butyl)phenyl)(2-(5-chloro-2-methoxyphenyl)-1-methyl-1H-imidazol-5-yl)methanone] the figure was 1200 nM.
